Data: US10668040B2, “Treatment of urea cycle disorders in neonates and infants” (Horizon Therapeutics, LLC, priority 2017, dated 2020)

Tests used:
UCD patients = assay: Example 3: BMI and BSA Z-scores up to Month 24; type: in vivo, human
Procedure: Baseline and Change from Baseline in Body Mass Index (BMI) Z-Score Up to Month 24
To assess any effect of study drug treatment on growth, Z-scores were calculated to express the deviation from a reference population for BMI. The Z-scores are based on the World Health Organization's Child Growth Standards charts. Negative Z-scores indicate lower than typical for age and gender while positive scores indicate higher than typical for age and gender. BMI measurements were taken on month 1, month 2, month 3, month 4, month 5, month 6, month 9, month 12, month 15, month 18, and month 24.
Baseline and Change from Baseline in Body Surface Area (BSA) Z-Score Up to Month 24
To assess any effect of study drug treatment on growth, Z-scores were calculated to express the deviation from a reference population for BSA. The Z-scores are based on weight-for-length charts. Negative Z-scores indicate lower than typical for age and gender while positive scores indicate higher than typical for age and gender. BMI measurements were taken on month 1, month 2, month 3, month 4, month 5, month 6, month 9, month 12, month 15, month 18, and month 24.

[1] = Pharmacokinetics of HPN-100 and NaPBA, study HPN-100-005; type: in vivo, human; settings: HPN-100-005 (N = 11)
Text: The pharmacokinetics of the short term studies can be summarized as follows. Mean exposure levels of HPN-100 metabolites PBA, PAA, and PAGN after doses of HPN-100 and NaPBA with meals (TID) in pediatric (29 days to 17 years of age) UCD patients in HPN-100-005 and HPN-100-012 studies are summarized below. The mean exposure to PBA, the parent metabolite, and mean exposure to PAGN, the terminal metabolite, show no systematic variation across age groups, while PAA exposure tended to decrease with increasing age, a finding consistent with those from population PK modeling which indicate that the rate of clearance/metabolism of PAA varies directly with body size. While systemic metabolite exposure, assessed as peak plasma concentration (Cmax) or AUC, is generally similar for HPN-100 and NaPBA, the minimum concentration (Cmin-ss) was higher—and/or percent-fluctuation less—for plasma PAGN, a finding consistent with slower gastrointestinal absorption of PBA when administered orally as HPN-100.

[2] = Age 2 months to <2 years, Month 1
[3] = Age 2 months to <2 years, Month 2
[4] = Age 2 months to <2 years, Month 3
[5] = Age 2 months to <2 years, Month 4
[6] = Age 2 months to <2 years, Month 5
[7] = Age 2 months to <2 years, Month 6
[8] = Age 2 months to <2 years, Month 9
[9] = Age 2 months to <2 years, Month 12
[10] = Age 2 months to <2 years, Month 15
[11] = Age 2 months to <2 years, Month 18
[12] = Age 2 months to <2 years, Month 24

## O=C(CCCc1ccccc1)OCC(COC(=O)CCCc1ccccc1)OC(=O)CCCc1ccccc1 [RAVICTI, benzenebutanoic acid, 1′,1″-(1,2,3-propanetriyl) ester]
UCD patients; Age 0 to <2 Months
  BMI Z-Score baseline: −0.0544 (±1.268);
  BSA Z-Score baseline: −0.1980 (±2.118);
UCD patients; Age 0 to <2 months, Month 1
  BMI Z-Score change from baseline: −0.2158 (±1.36);
  BSA Z-Score change from baseline: 0.2336 (±1.956);
UCD patients; Age 0 to <2 months, Month 2
  BMI Z-Score change from baseline: −0.2598 (±1.195);
  BSA Z-Score change from baseline: 0.2006 (±1.721);
UCD patients; Age 0 to <2 months, Month 3
  BMI Z-Score change from baseline: −0.1617 (±1.026);
  BSA Z-Score change from baseline: 0.2684 (±1.375);
UCD patients; Age 0 to <2 months, Month 4
  BMI Z-Score change from baseline: −0.0264 (±1.682);
  BSA Z-Score change from baseline: 0.2372 (±2.308);
UCD patients; Age 0 to <2 months, Month 5
  BMI Z-Score change from baseline: 0.0828 (±1.142);
  BSA Z-Score change from baseline: 0.1810 (±1.7);
UCD patients; Age 0 to <2 months, Month 6
  BMI Z-Score change from baseline: 0.0136 (±1.721);
  BSA Z-Score change from baseline: 0.2902 (±2.06);
UCD patients; Age 0 to <2 months, Month 9
  BMI Z-Score change from baseline: 0.4614 (±1.253);
  BSA Z-Score change from baseline: 0.1679 (±1.324);
UCD patients; Age 0 to <2 months, Month 12
  BMI Z-Score change from baseline: 0.6646 (±0.9533);
  BSA Z-Score change from baseline: 0.1308 (±0.5037);
UCD patients; Age 0 to <2 months, Month 15
  BMI Z-Score change from baseline: 0.6830 (±0.557);
  BSA Z-Score change from baseline: 0.1595 (±0.7583);
UCD patients; Age 0 to <2 months, Month 18
  BMI Z-Score change from baseline: 0.3308 (±0.2757);
  BSA Z-Score change from baseline: 0.1050 (±0.7352);
UCD patients; Age 0 to <2 months, Month 24
  BMI Z-Score change from baseline: 0.7743 (±0.6496);
  BSA Z-Score change from baseline: 0.7341 (±1.356);
UCD patients; Age 2 Months to <2 Years
  BMI Z-Score baseline: 0.8107 (±2.17);
  BSA Z-Score baseline: 0.7143 (±2.149);
UCD patients; [2]
  BMI Z-Score change from baseline: −0.2385 (±0.7783);
  BSA Z-Score change from baseline: −0.2105 (±0.7413);
UCD patients; [3]
  BMI Z-Score change from baseline: −0.0249 (±0.7486);
  BSA Z-Score change from baseline: −0.0704 (±0.7039);
UCD patients; [4]
  BMI Z-Score change from baseline: 0.1815 (±0.8606);
  BSA Z-Score change from baseline: 0.1065 (±0.7016);
UCD patients; [5]
  BMI Z-Score change from baseline: 0.4434 (±0.9485);
  BSA Z-Score change from baseline: 0.3365 (±0.7767);
UCD patients; [6]
  BMI Z-Score change from baseline: 0.1484 (±0.7629);
  BSA Z-Score change from baseline: 0.1043 (±0.5675);
UCD patients; [7]
  BMI Z-Score change from baseline: 0.2497 (±0.8092);
  BSA Z-Score change from baseline: 0.1842 (±0.622);
UCD patients; [8]
  BMI Z-Score change from baseline: 0.6407 (±0.9869);
  BSA Z-Score change from baseline: 0.4875 (±0.8614);
UCD patients; [9]
  BMI Z-Score change from baseline: 0.4164 (±0.8067);
  BSA Z-Score change from baseline: 0.2944 (±0.7513);
UCD patients; [10]
  BMI Z-Score change from baseline: −0.2997 (±0.1696);
  BSA Z-Score change from baseline: −0.3661 (±0.00932);
UCD patients; [11]
  BMI Z-Score change from baseline: −0.2038 (±00000);
  BSA Z-Score change from baseline: −0.2214 (±00000);
UCD patients; [12]
  BMI Z-Score change from baseline: 0.5581 (±1.24);
  BSA Z-Score change from baseline: 0.4310 (±1.131);
[1]; mean (CV %)
  Plasma PAA % Fluctuation: 3483 (51.5) %
  Plasma PAA AUC0-24: 964 (63.6) μg · h/mL
  Plasma PAA CLss/F: 15082 (101.4) mL/min
  Plasma PAA Cmax-ss: 90.5 (69.1) μg/mL
  Plasma PAA Cmin-ss: 2.99 (122.1) μg/mL
  Plasma PAGN % Fluctuation: 1001 (84.5) %
  Plasma PAGN AUC0-24: 1378 (40.2) μg · h/mL
  Plasma PAGN CLss/F: 14237 (36.8) mL/min
  Plasma PAGN Cmax-ss: 105 (33.5) μg/mL
  Plasma PAGN Cmin-ss: 13.1 (64.9) μg/mL
  Plasma PBA % Fluctuation: 5690 (56.8) %
  Plasma PBA AUC0-24: 631 (44.9) μg · h/mL
  Plasma PBA CLss/F: 20545 (47.2) mL/min
  Plasma PBA Cmax-ss: 95.6 (42.0) μg/mL
  Plasma PBA Cmin-ss: 1.50 (99.8) μg/mL
  U-PAGN Ae: 12501037 (56.9) μg
  U-PAGN Ae0-12: 5611719 (74.7) μg
  U-PAGN Ae12-24: 6889318 (50.1) μg
  U-PAGN Fe0-12: 28.9 (42.1) %
  U-PAGN Fe12-24: 37.4 (32.3) %
  U-PAGN Fe % dose: 66.4 (23.9) %
[1]; median
  Plasma PAA Tmax-ss: 11.92 h
  Plasma PAGN Tmax-ss: 12.00 h
  Plasma PBA Tmax-ss: 12.00 h
